Patent US7989466B2, “Methods to inhibit or augment an inflammatory response” (Cambridge Enterprise Limited, priority 1999, dated 2011)
Positions of bridges follow the written chain, without caps; N, C: chain ends. Non-standard residues stand in square brackets, D forms with d. Residues, ends and D or L forms follow the SMILES beside them.

Columns and labels:
[1] = Stability against acid hydrolysis and trypsin; assay type: in vitro ADME; conditions: 5 units trypsin for 2 hrs at 37° C.
Protocol: (§1) For example, to prepare a peptide 3 derivative, peptide 3(3-12)[MCP-1] was modified according to Jameson et al. (Nature, 368, 744 (1994)), which yielded CRD-Cys13Leu4Ile11peptide 3(3-12)[MCP-1] (FIG. 3). CRD-Cys13Leu4Ile11peptide 3(3-12)[MCP-1], which had very similar properties to peptide 3(1-12)[MCP-1] […] CRD-Cys13Leu4Ile11peptide 3(3-12)[MCP-1] was also resistant to hydrolysis in vivo and allowed therapeutically useful plasma concentrations to be achieved (>10 μM 24 hours after a single intraperitoneal dose of 1 mg of CRD-Cys13Leu4Ile11peptide 3(3-12)[MCP-1] in 250 μL saline).

[2] = Plasma concentration after a single intraperitoneal dose; assay type: in vivo; conditions: ip, 24 hours after a single intraperitoneal dose of 1 mg in 250 μL saline
Protocol: as §1

[3] = Competition of 125I-MCP-1 binding to heparin-coated agarose beads; conditions: 10^−11 to 10^−4 M
Description: Chemokines bind to glycosaminoglycans on the cell surface, which may facilitate chemokine receptor binding and subsequent signaling. […] This was followed by a monophasic displacement curve at concentrations of approximately 10^−7 to 10^−5 M MCP-1.

[4] = test system: T cell-dependent antibody response; assay: Antibody response in mice immunized with sheep red blood cells; assay type: in vivo, mouse; conditions: T cell-independent response not prevented
[5] = test system: lung CD3, CD4, B220 cells; assay: Lung cell number and type in normal mice; assay type: in vivo, mouse; conditions: high dose, all routes of administration, versus PBS controls
Protocol: To determine whether increasing doses of CRD-Leu4Ile11Cys13 peptide 3(3-12)[MCP-1] alters the cell number and type of cell within the lungs of normal mice, mice were injected intravenously, intravenously and intratracheally, or intratracheally alone with CRD-Leu4Ile11Cys13 peptide 3(3-12)[MCP-1]. Mice were sacrificed at 20-24 hours post injection. Lungs were collected for isolation of cells, which were subsequently counted and characterized by surface staining for CD3, CD4, CD8, B220, and Mac-1.

CD4 T cells = conditions: 5 ng
[6] = molecular target: T1, Recombinant human latent TGF-β1 (Homo sapiens, UniProt P01137); assay: Latent TGF-β1 activation ELISA (R2X capture); assay type: biochemical; set-up: key: −: A minus indicates no detectable activity in the assay; +: The number of pluses is a qualitative indicating of the activity of each peptide in each assay; ++: The number of pluses is a qualitative indicating of the activity of each peptide in each assay; +++: The number of pluses is a qualitative indicating of the activity of each peptide in each assay; ++++: The number of pluses is a qualitative indicating of the activity of each peptide in each assay; +++++: The number of pluses is a qualitative indicating of the activity of each peptide in each assay; conditions: test peptide at 100 nM, 37° C., 90 minutes
T1 construct: purchased R&D Systems; host or cells: CHO cells
Protocol: To test whether a KXK tripeptide activates TGF-beta, a direct ELISA-type assay can be used. Recombinant human latent TGF-β1 produced in CHO cells (R&D Systems) was incubated with the test activator. For example, 200 ng of latent TGF-β1 (at 20 μg/ml) was incubated with test peptide at 100 nM final concentration at 37° C. for 90 minutes. Following incubation, the TGF-β is incubated with the recombinant extracellular domain of the Type II TGF-β receptor (R2X) which binds only the active and not the latent forms of TGF-β1 (Clin. Chim. Acta, 235, 11 (1995)). For example, 1 μg of purified R2X is coated onto a Maxisorp ELISA plate well in 50 μl of 100 mM sodium carbonate for 2 hours at 4° C., and non-specific protein binding then blocked incubation with 5% sucrose 5% Tween-20 in Tris-buffered saline for 1 hour at room temperature.
The TGF-β sample is then incubated with the coated and blocked wells for 2 hours at room temperature with shaking. Wells are washed 3 times quickly with Tris-buffered saline containing 0.05% Tween-20 between each incubation. If any of the latent TGF-β1 has been activated by the incubation with test peptide, it is captured by the R2X, while remaining latent TGF-β1 is washed away. Captured active TGF-β1 is then detected by incubation with a suitable detection agent, such as a peroxidase conjugated polyclonal anti-TGF-beta antibody. For example, the wells are incubated with 200 μl of BDA19 chicken anti-TGF-β1 antibody coupled to horseradish peroxidase for 90 minutes at room temperature with shaking. Any bound peroxidase is then detected using a suitable chromogenic substrate (e.g., K-BLUE TMB substrate solution). The amount of active TGF-β generated is estimated by interpolation of a standard curve constructed using known amounts of active TGF-β1 (R&D Systems).

T1 sequence (P01137 30-278 limits assumed): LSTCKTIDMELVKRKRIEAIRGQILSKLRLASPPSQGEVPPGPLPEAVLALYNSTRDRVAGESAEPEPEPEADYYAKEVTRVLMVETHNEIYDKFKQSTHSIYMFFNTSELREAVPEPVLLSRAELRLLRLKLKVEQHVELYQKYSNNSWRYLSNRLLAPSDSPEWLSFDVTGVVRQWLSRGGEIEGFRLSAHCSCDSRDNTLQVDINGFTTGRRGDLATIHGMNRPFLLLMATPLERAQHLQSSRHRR

Structure (SMILES)	stability against enzymatic destruction [1]	level at time molar at 24 h [2]	displacement of 125I-MCP-1 from heparin-coated agarose beads [3]	T cell-dependent antibody response [4]	percentages of CD3, CD4 and B220 cells in lungs of normal mice [5]	reduction of ConA proliferation of CD4 T cells (CD4 T cells)	TGF-beta Activator [6]
CC[C@@H](C)[C@H]1NC(=O)[C@@H](CCC(N)=O)NC(=O)[C@H](N)CSSC[C@H](C(N)=O)NC(=O)[C@@H](CC(C)C)NC(=O)[C@@H](CC(=O)O)NC(=O)[C@H]2CCCN2C(=O)[C@@H](CCCCN)NC(=O)[C@@H](CCC(N)=O)NC(=O)[C@@H](CCCCN)NC(=O)[C@@H](Cc2c[nH]c3ccccc23)NC1=O (H-[dC][dQ][dI][dW][dK][dQ][dK][dP][dD][dL][dC]-NH2; disulfide 1-11; N-terminus assumed)	stable	> 10 µM	did not result in displacement	prevented	significantly reduced	< 3%	
NCCCC[C@H](NC(=O)[C@H](CCC(N)=O)NC(=O)[C@@H](N)CCCCN)C(=O)O [KQK]							−
